Test results: US10676477B2, “Factor XIa macrocycle inhibitors bearing a non-aromatic P2' group” (BRISTOL-MYERS SQUIBB COMPANY, priority 2015, dated 2020)
Where a name gives a salt, the structure may show the parent alone.

Legend:
[1] = biological target: T1, human plasma kallikrein (Homo sapiens, UniProt P03952); assay: Plasma kallikrein enzyme inhibition assay (chromogenic substrate S-2302), Ki; assay type: biochemical; settings: purified human plasma kallikrein, substrate S-2302, pH 7.5
T1 construct: purchased Enzyme Research Laboratories
Method: (§1) The effectiveness of compounds of the present invention as inhibitors of the coagulation Factors XIa, VIIa, IXa, Xa, XIIa, plasma kallikrein chymotrypsin, trypsin, or thrombin, can be determined using a relevant purified serine protease, respectively, and an appropriate synthetic substrate. The rate of hydrolysis of the chromogenic or fluorogenic substrate by the relevant serine protease was measured both in the absence and presence of compounds of the present invention. […] A decrease in the rate of absorbance or fluorescence change in the presence of inhibitor is indicative of enzyme inhibition. Such methods are known to one skilled in the art. The results of this assay are expressed as the inhibitory constant, Ki.
Plasma kallikrein determinations were made in 0.1 M sodium phosphate buffer at a pH of 7.5 containing 0.1-0.2 M sodium chloride and 0.5% PEG 8000. Determinations were made using purified human plasma kallikrein (Enzyme Research Laboratories) at a final assay concentration of 200 pM and the synthetic substrate S-2302 (H-(D)-Pro-Phe-Arg-pNA; CHROMOGENIX®) at a concentration of 0.00008-0.0004 M.
(§2) The Michaelis constant, Km, for substrate hydrolysis by each protease, was determined at 25° C. or 37° C. in the absence of inhibitor. Values of Ki were determined by allowing the protease to react with the substrate in the presence of the inhibitor. Reactions were allowed to go for periods of 20-180 minutes (depending on the protease) and the velocities (rate of absorbance or fluorescence change versus time) were measured. The following relationships were used to calculate Ki values: (Vmax*S)/(Km+S) (vo−vs)/vs=I/(Ki*(1+S/Km)) for a competitive inhibitor with one binding site; or vs/vo=A+((B−A)/(1+(IC50/(I)^n)); and Ki=IC50/(1+S/Km) for a competitive inhibitor where: […]

[2] = biological target: T2, human Factor XIa (Homo sapiens, UniProt P03951); assay: Factor XIa enzyme inhibition assay (chromogenic substrate S-2366), Ki; assay type: biochemical; settings: purified human Factor XIa, substrate S-2366, pH 7.4
T2 construct: purchased Haematologic Technologies
Method: as §1
Factor XIa determinations were made in 50 mM HEPES buffer at pH 7.4 containing 145 mM NaCl, 5 mM KCl, and 0.1% PEG 8000 (polyethylene glycol; JT Baker or Fisher Scientific). Determinations were made using purified human Factor XIa at a final concentration of 25-200 pM (Haematologic Technologies) and the synthetic substrate S-2366 (pyroGlu-Pro-Arg-pNA; CHROMOGENIX® or AnaSpec) at a concentration of 0.0002-0.001 M.
as §2

T1 sequence (P03952 391-638 limits assumed): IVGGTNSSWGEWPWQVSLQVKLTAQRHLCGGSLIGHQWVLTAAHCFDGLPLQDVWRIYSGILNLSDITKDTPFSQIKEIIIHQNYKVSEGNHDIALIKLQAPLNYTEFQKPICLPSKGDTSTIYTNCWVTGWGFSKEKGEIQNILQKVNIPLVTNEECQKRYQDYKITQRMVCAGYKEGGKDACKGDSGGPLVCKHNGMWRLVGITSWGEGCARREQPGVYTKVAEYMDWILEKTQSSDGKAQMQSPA
T1 sequence (P03952 20-390 partner limits assumed): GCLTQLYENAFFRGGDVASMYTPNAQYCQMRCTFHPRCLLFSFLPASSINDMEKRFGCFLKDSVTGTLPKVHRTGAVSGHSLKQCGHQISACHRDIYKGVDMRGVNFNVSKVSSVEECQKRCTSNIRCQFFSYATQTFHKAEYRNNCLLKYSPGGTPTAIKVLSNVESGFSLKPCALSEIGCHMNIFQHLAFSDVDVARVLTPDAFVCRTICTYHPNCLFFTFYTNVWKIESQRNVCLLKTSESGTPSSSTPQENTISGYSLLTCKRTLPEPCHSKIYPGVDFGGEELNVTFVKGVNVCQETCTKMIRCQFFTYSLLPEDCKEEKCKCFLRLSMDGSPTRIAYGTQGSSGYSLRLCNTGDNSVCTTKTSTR
T2 sequence (P03951 388-625 limits assumed): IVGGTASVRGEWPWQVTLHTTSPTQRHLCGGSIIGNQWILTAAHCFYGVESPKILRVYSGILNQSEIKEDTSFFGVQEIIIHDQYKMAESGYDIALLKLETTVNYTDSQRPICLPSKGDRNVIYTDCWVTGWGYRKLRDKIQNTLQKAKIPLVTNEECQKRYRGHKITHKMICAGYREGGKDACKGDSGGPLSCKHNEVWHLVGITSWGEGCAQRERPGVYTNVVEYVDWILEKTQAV
T2 sequence (P03951 19-387 partner limits assumed): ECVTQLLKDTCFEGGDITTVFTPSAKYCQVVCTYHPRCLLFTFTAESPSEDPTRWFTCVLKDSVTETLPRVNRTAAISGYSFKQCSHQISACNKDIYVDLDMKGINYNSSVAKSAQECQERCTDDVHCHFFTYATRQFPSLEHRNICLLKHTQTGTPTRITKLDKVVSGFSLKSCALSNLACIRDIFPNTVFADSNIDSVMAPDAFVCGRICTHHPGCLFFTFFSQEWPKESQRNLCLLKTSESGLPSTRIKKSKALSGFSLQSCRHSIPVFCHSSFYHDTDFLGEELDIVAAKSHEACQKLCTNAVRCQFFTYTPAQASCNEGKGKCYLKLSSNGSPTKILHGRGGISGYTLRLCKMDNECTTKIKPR

| Ki [1] [nM] | Ki [2] [nM] | Compound |
| --- | --- | --- |
| 3830 | 3310 | Cc1c(C(=O)N[C@H]2CCCCCNC(=O)[C@H]3CN(C(=O)OC(C)(C)C)CCN3c3cccc2c3)cnn1-c1cccc(Cl)c1F [Example 18, tert-butyl (7R,15S)-15-[1-(3-chloro-2-fluorophenyl)-5-methyl-1H-pyrazole-4-amido]-8-oxo-2,5,9-triazatricyclo[14.3.1.0^2,7]icosa-1(20),16,18-triene-5-carboxylate, trifluoromethylacetate] |
| 345 | 5 | CC(C)(C)OC(=O)N1CCN2c3cccc(c3)[C@@H](n3cnc(-c4c(-n5cc(Cl)nn5)ccc(Cl)c4F)cc3=O)CCCCCNC(=O)[C@H]2C1 [Example 19, tert-butyl (7R,15S)-15-{4-[3-chloro-6-(4-chloro-1H-1,2,3-triazol-1-yl)-2-fluorophenyl]-6-oxo-1,6-dihydropyrimidin-1-yl}-8-oxo-2,5,9-triazatricyclo[14.3.1.0^2,7]icosa-(20),16,18-triene-5-carboxylate trifluoromethylacetate] |
| 2550 | 1310 | Cc1c(C(=O)N[C@H]2CCCCCNC(=O)[C@H]3CNCCN3c3cccc2c3)cnn1-c1cccc(Cl)c1F [Example 20, 1-(3-chloro-2-fluorophenyl)-5-methyl-N-[(7R,15S)-8-oxo-2,5,9-triazatricyclo[14.3.1.0^2,7]icosa-1(20),16,18-trien-15-yl]-1H-pyrazole-4-carboxamide hydrochloride] |
| 9170 | 1060 | COC(=O)N1CCN2c3cccc(c3)[C@@H](NC(=O)c3cnn(-c4cccc(Cl)c4F)c3C)CCCCCNC(=O)[C@H]2C1 [Example 21, methyl (7R,15S)-15-[1-(3-chloro-2-fluorophenyl)-5-methyl-1H-pyrazole-4-amido]-8-oxo-2,5,9-triazatricyclo[14.3.1.0^2,7]icosa-1(20),16,18-triene-5-carboxylate, trifluoromethyl acetate] |
| 189 | 5 | COC(=O)N1CCN2c3cccc(c3)[C@@H](N3CCC(c4cc(Cl)ccc4-n4cc(Cl)nn4)=CC3=O)CCCCCNC(=O)[C@H]2C1 [Example 22, methyl (7R,15S)-15-{4-[5-chloro-2-(4-chloro-1H-1,2,3-triazol-1-yl)phenyl]-6-oxo-1,2,3,6-tetrahydropyridin-1-yl}-8-oxo-2,5,9-triazatricyclo[14.3.1.0^2,7]icosa-1(20),16,18-triene-5-carboxylate trifluoromethyl acetate] |
| 2720 | 27 | COC(=O)NC[C@H]1Nc2cccc(c2)[C@@H](n2cnc(-c3cc(Cl)ccc3-n3cc(Cl)nn3)cc2=O)CCCCCNC1=O [Example 23, methyl N-{[(3R,11S)-11-{4-[5-chloro-2-(4-chloro-1H-1,2,3-triazol-1-yl)phenyl]-6-oxo-1,6-dihydropyrimidin-1-yl}-4-oxo-2,5-diazabicyclo[10.3.1]hexadeca-1(16),12,14-trien-3-yl]methyl}carbamate trifluoromethyl acetate] |
| 5200 | 62 | O=C(NC[C@H]1Nc2cccc(c2)[C@@H](n2cnc(-c3cc(Cl)ccc3-n3cc(Cl)nn3)cc2=O)CCCCCNC1=O)c1cccnc1 [Example 24, N-{[(3R,11S)-11-{4-[5-chloro-2-(4-chloro-1H-1,2,3-triazol-1-yl)phenyl]-6-oxo-1,6-dihydropyrimidin-1-yl}-4-oxo-2,5-diazabicyclo[10.3.1]hexadeca-1(16),12,14-trien-3-yl]methyl}pyridine-3-carboxamide trifluoromethylacetate] |
| 6750 | 51 | O=C1CN2c3cccc(c3)[C@@H](n3cnc(-c4cc(Cl)ccc4-n4cc(Cl)nn4)cc3=O)CCCCCNC(=O)C2CN1 (stereo partly drawn) [Example 25, (15S)-15-{4-[5-chloro-2-(4-chloro-1H-1,2,3-triazol-1-yl)phenyl]-6-oxo-1,6-dihydropyrimidin-1-yl}-2,5,9-triazatricyclo[14.3.1.0^2,7]icosa-1(20),16,18-triene-4,8-dione] |
| 430 | 24 | CC(C)(C)OC(=O)NCC[C@H]1Nc2cccc(c2)[C@@H](n2cnc(-c3cc(Cl)ccc3-n3cc(Cl)nn3)cc2=O)CCCCCNC1=O [Example 26, tert-butyl N-{2-[(3R,11S)-11-{4-[5-chloro-2-(4-chloro-1H-1,2,3-triazol-1-yl)phenyl]-6-oxo-1,6-dihydropyrimidin-1-yl}-4-oxo-2,5-diazabicyclo[10.3.1]hexadeca-1(16),12,14-trien-3-yl]ethyl}carbamate trifluoromethylacetate] |
| 14000 | 871 | NCC[C@H]1Nc2cccc(c2)[C@@H](n2cnc(-c3cc(Cl)ccc3-n3cc(Cl)nn3)cc2=O)CCCCCNC1=O [Example 27, (3R,11S)-3-(2-aminoethyl)-11-{4-[5-chloro-2-(4-chloro-1H-1,2,3-triazol-1-yl)phenyl]-6-oxo-1,6-dihydropyrimidin-1-yl}-2,5-diazabicyclo[10.3.1]hexadeca-1(16),12,14-trien-4-one hydrochloride] |
| 83 | 5 | COC(=O)NCC[C@H]1Nc2cccc(c2)[C@@H](n2cnc(-c3cc(Cl)ccc3-n3cc(Cl)nn3)cc2=O)CCCCCNC1=O [Example 28, methyl N-{2-[(3R,11S)-11-{4-[5-chloro-2-(4-chloro-1H-1,2,3-triazol-1-yl)phenyl]-6-oxo-1,6-dihydropyrimidin-1-yl}-4-oxo-2,5-diazabicyclo[10.3.1]hexadeca-1(16),12,14-trien-3-yl]ethyl}carbamate trifluoromethyl acetate] |
| 49 | 5 | O=C(NCC[C@H]1Nc2cccc(c2)[C@@H](n2cnc(-c3cc(Cl)ccc3-n3cc(Cl)nn3)cc2=O)CCCCCNC1=O)c1ccn(C(F)F)n1 [Example 29, N-{2-[(3R,11S)-11-{4-[5-chloro-2-(4-chloro-1H-1,2,3-triazol-1-yl)phenyl]-6-oxo-1,6-dihydropyrimidin-1-yl}-4-oxo-2,5-diazabicyclo[10.3.1]hexadeca-1(16),12,14-trien-3-yl]ethyl}-1-(difluoromethyl)-1H-pyrazole-3-carboxamide trifluoromethyl acetate] |
| 5680 | 515 | COC(=O)NCC[C@@H]1Nc2cccc(c2)[C@@H](n2cnc(-c3cc(Cl)ccc3-n3cc(Cl)nn3)cc2=O)CCCCCNC1=O [Example 30, methyl N-{2-[(3S,11S)-11-{4-[5-chloro-2-(4-chloro-1H-1,2,3-triazol-1-yl)phenyl]-6-oxo-1,6-dihydropyrimidin-1-yl}-4-oxo-2,5-diazabicyclo[10.3.1]hexadeca-1(16),12,14-trien-3-yl]ethyl}carbamate trifluoromethyl acetate] |
| 9490 | 1830 | COC(=O)NCC[C@@H]1Nc2cccc(c2)[C@@H](NC(=O)c2cnn(-c3cccc(Cl)c3F)c2Cl)CCCCCNC1=O [Example 31, methyl N-{2-[(3S,11S)-11-[5-chloro-1-(3-chloro-2-fluorophenyl)-1H-pyrazole-4-amido]-4-oxo-2,5-diazabicyclo[10.3.1]hexadeca-1(16),12,14-trien-3-yl]ethyl}carbamate, trifluoromethylacetate] |
| 5300 | 77.5 | O=C1NCCCC[C@H](n2cnc(-c3c(-n4cc(Cl)nn4)ccc(Cl)c3F)cc2=O)c2cc(F)cc(c2)N2C(=O)CC[C@H]12 [Example 32, (6R,13S)-13-{4-[3-chloro-6-(4-chloro-1H-1,2,3-triazol-1-yl)-2-fluorophenyl]-6-oxo-1,6-dihydropyrimidin-1-yl}-16-fluoro-2,8-diazatricyclo[12.3.1.0^2,6]octadeca-1(18),14,16-triene-3,7-dione] |
| 319 | 12 | O=C1NCCCCC[C@H](n2cnc(-c3cc(Cl)ccc3-n3cc(C(F)(F)F)nn3)cc2=O)c2cccc(c2)N2C(=O)CC[C@H]12 [Example 33, (6R,14S)-14-(4-{5-chloro-2-[4-(trifluoromethyl)-1H-1,2,3-triazol-1-yl]phenyl}-6-oxo-1,6-dihydropyrimidin-1-yl)-2,8-diazatricyclo[13.3.1.0^2,6]nonadeca-1(19),15,17-triene-3,7-dione] |
| 134 | 6 | O=C1NCCCCC[C@H](n2cnc(-c3c(-n4cc(Cl)nn4)ccc(Cl)c3F)cc2=O)c2cccc(c2)N2C(=O)CC[C@H]12 [Example 34, (6R,14S)-14-{4-[3-chloro-6-(4-chloro-1H-1,2,3-triazol-1-yl)-2-fluorophenyl]-6-oxo-1,6-dihydropyrimidin-1-yl}-2,8-diazatricyclo[13.3.1.0^2,6]nonadeca-1(19),15,17-triene-3,7-dione] |
